Data from ChEMBL document CHEMBL2406948, “Skeletal rearrangement of seven-membered iminosugars: synthesis of (-)-adenophorine, (-)-1-epi-adenophorine and derivatives and evaluation as glycosidase inhibitors” (Bioorg Med Chem, 2013).

How the values were obtained:
Prunus dulcis = experiment: Inhibition of almond beta-glucosidase at 1000 uM
Rattus norvegicus = organism: Rattus norvegicus; experiment: Inhibition of rat intestinal maltase alpha-glucosidase at 1000 uM
Aspergillus niger [1] = experiment: Inhibition of Aspergillus niger beta-glucosidase at 1000 uM
Canavalia ensiformis = experiment: Inhibition of jack beans alpha-mannosidase at 1000 uM
[2] = target: Alpha-galactosidase (Coffea arabica) (UniProt Q42656); experiment: Inhibition of coffee bean alpha-galactosidase at 1000 uM
[3] = target: T1, Alpha-glucosidase (Aspergillus niger) (UniProt P56526); experiment: Inhibition of Aspergillus niger alpha-glucosidase at 1000 uM
T1 sequence (whole entry): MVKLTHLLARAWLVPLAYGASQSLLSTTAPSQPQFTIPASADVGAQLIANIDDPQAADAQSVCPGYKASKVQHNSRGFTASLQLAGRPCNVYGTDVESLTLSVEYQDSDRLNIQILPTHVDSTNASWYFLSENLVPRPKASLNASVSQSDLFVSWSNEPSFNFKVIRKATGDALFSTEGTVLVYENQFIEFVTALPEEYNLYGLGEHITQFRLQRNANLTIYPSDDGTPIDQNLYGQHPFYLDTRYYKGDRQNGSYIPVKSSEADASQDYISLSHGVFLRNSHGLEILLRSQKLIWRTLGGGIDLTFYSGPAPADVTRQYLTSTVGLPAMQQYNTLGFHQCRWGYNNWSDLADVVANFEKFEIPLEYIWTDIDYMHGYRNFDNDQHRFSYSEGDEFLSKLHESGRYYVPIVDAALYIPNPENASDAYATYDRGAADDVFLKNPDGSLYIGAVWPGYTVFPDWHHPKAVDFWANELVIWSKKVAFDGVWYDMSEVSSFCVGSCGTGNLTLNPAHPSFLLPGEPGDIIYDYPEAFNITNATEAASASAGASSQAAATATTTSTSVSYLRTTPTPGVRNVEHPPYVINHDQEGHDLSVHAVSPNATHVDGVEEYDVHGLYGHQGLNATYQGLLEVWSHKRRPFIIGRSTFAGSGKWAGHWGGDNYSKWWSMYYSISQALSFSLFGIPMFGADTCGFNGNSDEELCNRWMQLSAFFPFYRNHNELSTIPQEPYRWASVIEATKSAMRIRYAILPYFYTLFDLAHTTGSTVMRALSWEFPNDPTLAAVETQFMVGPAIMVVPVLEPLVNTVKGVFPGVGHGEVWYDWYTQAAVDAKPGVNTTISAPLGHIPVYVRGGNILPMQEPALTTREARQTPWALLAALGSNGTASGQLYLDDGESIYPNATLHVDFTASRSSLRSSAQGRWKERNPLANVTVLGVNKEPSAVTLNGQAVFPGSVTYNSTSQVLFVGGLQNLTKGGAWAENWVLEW

Helix pomatia = experiment: Inhibition of snail beta-mannosidase at 1000 uM
Rhizopus = experiment: Inhibition of Rhizopus sp. amyloglucosidase at 1000 uM
[4] = target: T2, Beta-glucuronidase (Bos taurus) (UniProt A3KMY8); experiment: Inhibition of bovine liver beta-glucuronidase at 1000 uM
T2 sequence (whole entry): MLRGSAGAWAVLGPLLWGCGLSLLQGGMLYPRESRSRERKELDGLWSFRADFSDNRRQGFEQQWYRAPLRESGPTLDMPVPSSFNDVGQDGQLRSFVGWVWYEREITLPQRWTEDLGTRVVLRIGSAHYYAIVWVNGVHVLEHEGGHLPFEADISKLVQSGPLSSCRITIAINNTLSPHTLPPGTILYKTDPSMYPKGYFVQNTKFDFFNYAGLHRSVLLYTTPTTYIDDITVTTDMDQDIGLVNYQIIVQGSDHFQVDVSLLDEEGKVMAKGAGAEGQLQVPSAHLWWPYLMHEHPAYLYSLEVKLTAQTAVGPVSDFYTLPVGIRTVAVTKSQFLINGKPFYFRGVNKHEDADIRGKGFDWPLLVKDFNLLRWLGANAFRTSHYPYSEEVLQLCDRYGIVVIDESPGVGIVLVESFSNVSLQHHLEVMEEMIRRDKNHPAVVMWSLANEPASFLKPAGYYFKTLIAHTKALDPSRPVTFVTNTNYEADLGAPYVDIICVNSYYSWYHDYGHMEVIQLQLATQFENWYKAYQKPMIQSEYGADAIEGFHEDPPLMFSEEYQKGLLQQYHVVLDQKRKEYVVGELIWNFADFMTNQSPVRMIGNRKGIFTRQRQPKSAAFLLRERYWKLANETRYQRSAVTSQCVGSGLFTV

Aspergillus niger [5] = experiment: Inhibition of Aspergillus niger amyloglucosidase at 1000 uM
[6] = target: Oligo-1,6-glucosidase IMA1 (Saccharomyces cerevisiae S288c) (UniProt P53051); experiment: Inhibition of yeast alpha-glucosidase at 1000 uM
[7] = target: T3, Uncharacterized protein (Sus scrofa) (UniProt I3LIR5); experiment: Inhibition of pig kidney alpha, alpha trehalase at 1000 uM
T3 sequence (whole entry): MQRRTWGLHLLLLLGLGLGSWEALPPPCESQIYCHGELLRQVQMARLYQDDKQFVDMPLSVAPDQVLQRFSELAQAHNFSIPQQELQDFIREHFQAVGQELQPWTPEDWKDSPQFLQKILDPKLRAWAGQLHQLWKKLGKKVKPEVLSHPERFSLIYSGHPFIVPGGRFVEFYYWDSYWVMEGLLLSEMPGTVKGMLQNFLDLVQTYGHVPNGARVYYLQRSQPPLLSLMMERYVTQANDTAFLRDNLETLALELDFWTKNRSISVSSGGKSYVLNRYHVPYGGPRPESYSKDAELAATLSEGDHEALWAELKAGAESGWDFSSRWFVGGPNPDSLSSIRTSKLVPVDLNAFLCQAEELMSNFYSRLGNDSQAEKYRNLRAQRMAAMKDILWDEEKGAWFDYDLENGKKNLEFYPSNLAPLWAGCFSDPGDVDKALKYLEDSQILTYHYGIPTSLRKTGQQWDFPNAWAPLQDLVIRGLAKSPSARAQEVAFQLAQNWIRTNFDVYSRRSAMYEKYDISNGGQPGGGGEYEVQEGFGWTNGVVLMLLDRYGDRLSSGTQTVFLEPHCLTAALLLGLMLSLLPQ

Oryza sativa = experiment: Inhibition of rice alpha-glucosidase at 1000 uM
Escherichia coli = experiment: Inhibition of Escherichia coli beta-glucuronidase at 1000 uM

Oligo-1,6-glucosidase IMA1 (Saccharomyces cerevisiae S288c), sequence (P53051 whole entry): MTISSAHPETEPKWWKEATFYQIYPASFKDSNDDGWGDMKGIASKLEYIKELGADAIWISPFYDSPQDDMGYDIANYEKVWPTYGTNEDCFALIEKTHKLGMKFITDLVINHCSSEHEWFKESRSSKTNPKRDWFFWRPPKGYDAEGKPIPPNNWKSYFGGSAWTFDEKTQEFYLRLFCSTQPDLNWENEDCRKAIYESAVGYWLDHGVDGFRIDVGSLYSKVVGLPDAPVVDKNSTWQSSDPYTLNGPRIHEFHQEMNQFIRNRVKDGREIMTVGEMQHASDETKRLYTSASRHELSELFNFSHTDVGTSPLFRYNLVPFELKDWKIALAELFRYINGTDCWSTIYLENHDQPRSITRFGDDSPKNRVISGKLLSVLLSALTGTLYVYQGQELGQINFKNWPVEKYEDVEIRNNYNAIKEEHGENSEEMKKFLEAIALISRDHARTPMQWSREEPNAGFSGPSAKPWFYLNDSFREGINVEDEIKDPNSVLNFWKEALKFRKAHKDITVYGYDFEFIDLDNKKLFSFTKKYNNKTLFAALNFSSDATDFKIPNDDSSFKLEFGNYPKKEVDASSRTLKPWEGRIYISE
Alpha-galactosidase (Coffea arabica), sequence (Q42656 16-378 limits assumed): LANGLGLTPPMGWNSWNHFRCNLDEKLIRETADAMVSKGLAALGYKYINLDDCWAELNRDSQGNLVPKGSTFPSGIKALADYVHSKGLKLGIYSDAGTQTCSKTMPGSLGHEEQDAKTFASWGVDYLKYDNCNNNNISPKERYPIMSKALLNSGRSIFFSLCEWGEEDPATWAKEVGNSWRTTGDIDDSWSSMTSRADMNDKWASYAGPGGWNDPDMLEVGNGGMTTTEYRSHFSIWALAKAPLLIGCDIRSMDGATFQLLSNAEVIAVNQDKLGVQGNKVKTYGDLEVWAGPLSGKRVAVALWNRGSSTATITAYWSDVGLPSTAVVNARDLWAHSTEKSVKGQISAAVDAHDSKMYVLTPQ

inhibition (Prunus dulcis) [%]	inhibition (Rattus norvegicus) [%]	inhibition (Aspergillus niger [1]) [%]	inhibition (Canavalia ensiformis) [%]	inhibition [2] [%]	inhibition [3] [%]	inhibition (Helix pomatia) [%]	inhibition (Rhizopus) [%]	inhibition [4] [%]	inhibition (Aspergillus niger [5]) [%]	inhibition [6] [%]	inhibition [7] [%]	inhibition (Oryza sativa) [%]	inhibition (Escherichia coli) [%]	Compound
42.6	0	0	5.1	10.4	1.4	1.3	0	0	0	40	0	0	–	CCC[C@@H]1N[C@@H](CO)[C@@H](O)[C@H](O)[C@H]1O
48.7	13.7	0	11	7.5	0.2	0	0	0.1	0	23.5	0	0	18.1	CC[C@@H]1NC[C@@H](O)[C@@H](O)[C@H](O)[C@H]1O
5.1	0	0	0	1.2	0	0	0	0.1	0.8	0	3.9	1	3.1	CC[C@H]1NC[C@@H](O)[C@@H](O)[C@H](O)[C@H]1O
33.5	0	0	0	0.6	6.1	0	0	0.8	0	0	6	0	7.2	CC[C@@H]1N[C@@H](CO)[C@@H](O)[C@H](O)[C@H]1O
16.9	3.3	0	5.1	8.7	0	0	0	0	1.9	9	0	0	11	CC[C@H]1N[C@@H](CO)[C@@H](O)[C@H](O)[C@H]1O
21.4	0	0	0.4	3.7	0	0.3	3.4	0.5	4.1	2	4.9	1.7	12.9	CC[C@@H]1N[C@H](CC)[C@H](O)[C@@H](O)[C@@H]1O
